This passage reports mutagenic call and call results from PubChem BioAssay AID1259408 (Genetic Toxicology Data Bank (GENE-TOX), 2018).

The structures appear in SMILES notation. The source made the active and inactive calls. The rule behind the calls is not given here.

In the series the test system is GENE-TOX genotoxicity assays, various organisms and cells. Put plainly: GENE-TOX mutagenicity studies. Conditions: for call: Assay Type: In vivo carcinogenicity studies.
The mark [1] stands for this setting: Species/Cell Type: Nonhuman, Assay Type: Sister-chromatid exchange (SCE) in vitro, Assay Code: SC2+D, Dose Response: With dose response, Evaluation Type: Evaluation B (Post-1980).
[2] abbreviates: Species/Cell Type: Bacillus subtilis (H17 vs M45), Assay Type: Rec-assay, spot test, DNA effects (bacterial DNA repair), Assay Code: REWT, Evaluation Type: Evaluation A (Pre-1980).
Where [3] appears, read: Species/Cell Type: Drosophila melanogaster, Assay Type: Sex-linked recessive lethal gene mutation, Assay Code: SRL+, Evaluation Type: Evaluation A (Pre-1980).
Setting [4] is: Species/Cell Type: Salmonella typhimurium (one or more of the five standard strains: TA98, TA100, TA1535, TA1537, and TA1538), Assay Type: Histidine reverse gene mutation, Ames assay, Assay Code: SAL+*, Activation: With metabolic activation, Evaluation Type: Evaluation A (Pre-1980).
[5] abbreviates: Species/Cell Type: Salmonella typhimurium (one or more of the five standard strains: TA98, TA100, TA1535, TA1537, and TA1538), Assay Type: Histidine reverse gene mutation, Ames assay, Assay Code: SALT, Evaluation Type: Evaluation A (Pre-1980).
Setting [6] is: Species/Cell Type: Nonhuman, Assay Code: CCG+, Evaluation Type: Evaluation A (Pre-1980).

On to `CCO`, for which the mutagenic call is, setting by setting: (Species/Cell Type: Arabidopsis species, Assay Type: Gene mutation, Assay Code: ARM-, Evaluation Type: Evaluation A (Pre-1980)) “inactive; negative”; (Species/Cell Type: Aspergillus nidulans, Assay Type: Forward gene mutation, Assay Code: ASF-, Evaluation Type: Evaluation A (Pre-1980)) “inactive; negative”; (Species/Cell Type: Fischer rat embryo (RLV/1706) cells, Assay Type: Cell transformation, viral enhanced, Assay Code: CTR-, Evaluation Type: Evaluation A (Pre-1980)) “inactive; negative”; (Species/Cell Type: Human lymphocytes, Assay Type: Sister-chromatid exchange (SCE) in vitro, Assay Code: SCL+D, Dose Response: With dose response, Evaluation Type: Evaluation B (Post-1980)) “active; positive”; (Species/Cell Type: Human lymphocytes, Assay Type: Sister-chromatid exchange (SCE) in vitro, Assay Code: SCL-, Evaluation Type: Evaluation A (Pre-1980)) “inactive; negative”; (Species/Cell Type: Human, Assay Type: Sister-chromatid exchange (SCE) in vitro, Assay Code: SC1+D, Dose Response: With dose response, Evaluation Type: Evaluation B (Post-1980)) “active; positive”. Moreover, the mutagenic call by setting is: (Species/Cell Type: Human, Assay Type: Sister-chromatid exchange (SCE) in vitro, Assay Code: SC1-, Evaluation Type: Evaluation A (Pre-1980)) “inactive; negative”; (Species/Cell Type: Mammalian polychromatic erythrocytes, Assay Type: Micronucleus test, chromosome aberrations, Assay Code: MNT-, Evaluation Type: Evaluation A (Pre-1980)) “inactive; negative”; (Species/Cell Type: Mouse, Sex: Male, Assay Type: Sperm morphology, Assay Code: SPI-, Evaluation Type: Evaluation A (Pre-1980)) “inactive; negative”; (Species/Cell Type: Neurospora crassa, Assay Type: Aneuploidy, chromosome aberrations, Assay Code: NEN-, Evaluation Type: Evaluation A (Pre-1980)) “inactive; negative”; (Species/Cell Type: Nonhuman, Assay Type: Chromosome aberrations in vitro, Assay Code: CY&-, Evaluation Type: Evaluation A (Pre-1980)) “inactive; negative”; under setting [1], “active; positive”. For the same molecule, the mutagenic call was “inactive; negative” (Species/Cell Type: Nonhuman, Assay Type: Sister-chromatid exchange (SCE) in vitro, Assay Code: SC2-, Evaluation Type: Evaluation A (Pre-1980)); “active; positive” (Species/Cell Type: Nonhuman, Assay Type: Sister-chromatid exchange (SCE) in vivo, Assay Code: SC3+, Evaluation Type: Evaluation B (Post-1980)); “active; positive” (Species/Cell Type: Rodents, Sex: Male, Assay Type: Dominant lethal test, Assay Code: DLT+, Evaluation Type: Evaluation A (Pre-1980)); “inactive; negative” (Species/Cell Type: Salmonella typhimurium (one or more of the five standard strains: TA98, TA100, TA1535, TA1537, and TA1538), Assay Type: Histidine reverse gene mutation, Ames assay, Assay Code: SAL-, Evaluation Type: Evaluation A (Pre-1980)); “inactive; negative” (Species/Cell Type: Syrian hamster embryo (SHE) cells, Assay Type: Cell transformation, clonal assay, Assay Code: CTC-, Evaluation Type: Evaluation A (Pre-1980)); “active; positive” (Species/Cell Type: Tradescantia species, Assay Type: Gene mutation, Assay Code: TRM+D, Dose Response: With dose response, Evaluation Type: Evaluation A (Pre-1980)). Also, the mutagenic call (Species/Cell Type: Vicia faba, Assay Type: Chromosome aberrations, Assay Code: VIC+, Evaluation Type: Evaluation A (Pre-1980)) was “active; positive”. Moreover, where the note is “Species/Cell Type: Nonhuman, Assay Code: CCG-L, Evaluation Type: Evaluation A (Pre-1980)”, the call is “inactive; negative”.
Regarding `Cc1cc(O)ccc1C1(c2ccc(O)cc2C)OS(=O)(=O)c2ccccc21`, where the note is “Species/Cell Type: Allium cepa, Assay Type: Chromosome aberrations, Assay Code: ALC+D, Dose Response: With dose response, Evaluation Type: Evaluation A (Pre-1980)”, the mutagenic call is “active; positive”.
As for `O=[N+]([O-])c1ccc2ccc3cc4ccccc4c4ccc1c2c34`, the mutagenic call (Species/Cell Type: Chinese hamster ovary (CHO) cells, Assay Type: Forward gene mutation at the HPRT locus, Assay Code: CHO+*, Activation: With metabolic activation, Evaluation Type: Evaluation B (Post-1980)) was “active; positive”.
Consider `COc1ccc2nc3cc(Cl)ccc3c(NCCCNCCCl)c2n1`, for which the mutagenic call (Species/Cell Type: Chinese hamster ovary (CHO) cells, Assay Type: Forward gene mutation at the HPRT locus, Assay Code: CHO+D, Dose Response: With dose response, Evaluation Type: Evaluation A (Pre-1980)) was “active; positive”.
In the case of `CCOC(=O)N(C)C(=O)CSP(=S)(OCC)OCC`, the mutagenic call under setting [2] is on record as “no conclusion”.
For `NC(=O)OCCO`, the mutagenic call reads like this: (Species/Cell Type: Nonhuman, Assay Type: Sister-chromatid exchange (SCE) in vitro, Assay Code: SC2+*, Activation: With metabolic activation, Evaluation Type: Evaluation B (Post-1980)) “active; positive”; (Species/Cell Type: Nonhuman, Assay Type: Sister-chromatid exchange (SCE) in vivo, Assay Code: SC3T, Evaluation Type: Evaluation B (Post-1980)) “no conclusion”.
Take `CN(C)N=Nc1ccc(Br)cc1`: the mutagenic call by setting is: under setting [3], “active; positive”; (Species/Cell Type: Mammalian polychromatic erythrocytes, Assay Type: Micronucleus test, chromosome aberrations, Assay Code: MNT+, Evaluation Type: Evaluation A (Pre-1980)) “active; positive”; (Species/Cell Type: Saccharomyces cerevisiae, Assay Type: Mitotic recombination or gene conversion, Assay Code: YEC+, Evaluation Type: Evaluation A (Pre-1980)) “active; positive”.
As for `O=NN1CCC(Br)C(Br)C1` (stereo not given), the mutagenic call under setting [3] was “active; positive”; the mutagenic call (Species/Cell Type: Salmonella typhimurium (one or more of the five standard strains: TA98, TA100, TA1535, TA1537, and TA1538), Assay Type: Histidine reverse gene mutation, Ames assay, Assay Code: SAL+, Evaluation Type: Evaluation A (Pre-1980)) is “active; positive”.
`CN[C@H]1[C@@H](O[C@@H]2C3CC#CC4O[C@@]4(C4COC(=O)O4)C#CC3=C[C@H]2OC(=O)c2c(O)ccc3c(C)cc(OC)cc23)O[C@H](C)[C@H](O)[C@@H]1O` (stereo not given in full): the mutagenic call is “active; positive” (Species/Cell Type: Escherichia coli WP2, Assay Type: Tryptophan reverse gene mutation, Assay Code: WP2+D, Dose Response: With dose response, Evaluation Type: Evaluation A (Pre-1980)); “active; positive” (Species/Cell Type: Escherichia coli WP2 UVRA, Assay Type: Tryptophan reverse gene mutation, Assay Code: WPU+D, Dose Response: With dose response, Evaluation Type: Evaluation A (Pre-1980)); “active; positive” (Species/Cell Type: Human diploid fibroblasts, Assay Type: Unscheduled DNA synthesis (UDS) in vitro, DNA effects, Assay Code: UDH+D, Dose Response: With dose response, Evaluation Type: Evaluation A (Pre-1980)); “active; positive” under setting [1].
`C[C@]12CC[C@H]3[C@@H](CCC4=CC(=O)CC[C@@]43C)[C@@H]1CC[C@@H]2OC(=O)CCC1CCCC1`: for the setting “Species/Cell Type: Human, Sex: Male, Assay Type: Sperm morphology, Assay Code: SPH+, Evaluation Type: Evaluation A (Pre-1980)”, the mutagenic call is “active; positive”.
For the molecule `Cc1cccc2c1cc(C)c1c3ccccc3ccc21`, the mutagenic call under setting [4] was “active; positive”.
Regarding `CC(C)N1C(=O)c2ccccc2NS1(=O)=O`, the mutagenic call (Species/Cell Type: Saccharomyces cerevisiae, Assay Type: Mitotic recombination or gene conversion, Assay Code: YEC-, Evaluation Type: Evaluation A (Pre-1980)) is “inactive; negative”.
Consider `O=C(O)c1c(Cl)c(Cl)c(Cl)c(Cl)c1-c1c2cc(Br)c(=O)c(Br)c-2oc2c(Br)c(O)c(Br)cc12`, for which the mutagenic call under setting [2] is given as “no conclusion”.
With `Nc1ccc(-c2nc(NCCO)c3ccccc3n2)s1`, the mutagenic call under setting [5] is “no conclusion”.
As to `Cc1c2ccccc2c(CO)c2ccc3ccccc3c12`, the mutagenic call (Species/Cell Type: Chinese hamster lung (V79) cells, Assay Type: Forward gene mutation at the HPRT or ouabain locus, Assay Code: V79+, Evaluation Type: Evaluation A (Pre-1980)) was “active; positive”; the mutagenic call (Species/Cell Type: Escherichia coli polA (W3110 vs P3478), Assay Type: Rec-assay, DNA effects (bacterial DNA repair), Assay Code: RE2+, Evaluation Type: Evaluation A (Pre-1980)) is “active; positive”; the mutagenic call (Species/Cell Type: Escherichia coli polA (W3119 vs P3478), Assay Type: Rec-assay, DNA effects (bacterial DNA repair), Assay Code: RE1T, Evaluation Type: Evaluation A (Pre-1980)) is given as “no conclusion”; the mutagenic call (Species/Cell Type: Saccharomyces cerevisiae, Assay Type: Mitotic recombination or gene conversion, Assay Code: YEH-, Evaluation Type: Evaluation A (Pre-1980)) is “inactive; negative”; the mutagenic call under setting [4] was “active; positive”; the mutagenic call (Species/Cell Type: Salmonella typhimurium, Assay Type: Forward and reverse gene mutation, host-mediated assay, Assay Code: HMA-, Evaluation Type: Evaluation A (Pre-1980)) was “inactive; negative”. Further, the call under setting [6] was “active; positive”.
Regarding `C#C[C@]1(O)CC[C@H]2[C@@H]3CCc4cc(OC)ccc4[C@H]3CC[C@@]21C`, the call under setting [6] was “active; positive”.
Regarding `[Cl][Rh]([Cl])[Cl]`, the mutagenic call (Species/Cell Type: Bacillus subtilis (H17 vs M45), Assay Type: Rec-assay, spot test, DNA effects (bacterial DNA repair), Assay Code: REW+, Evaluation Type: Evaluation A (Pre-1980)) was “active; positive”.
Consider `COc1cc2c(c3oc(=O)c4c(c13)CCC4=O)[C@@H]1C(Cl)C(O)O[C@@H]1O2` (stereo not given in full), for which, under setting [5], the mutagenic call is on record as “no conclusion”.
